Test results from patent US8288107B2, “Materials and methods for detecting interaction of CFTR polypeptides” (Florida State University Research Foundation, priority 1999, dated 2012).

Experiments:
[1] = test system: YRG2-ΔF strain; experiment: Colony formation on SC-HIS-LEU-TRP media, YRG2-ΔF strain; type: cell-based, yeast; settings: 1.5 mM in SC-HIS-LEU-TRP media; 30° C.; three days
Protocol: (§1) When the YRG2-ΔF strain was streaked onto solid media (SC-HIS, -LEU, -TRP) and incubated at 21° C., colonies formed within three days (Table 2). The YRG2-ΔF colonies were approximately the same size as colonies produced by YRG2-WT grown under the same conditions. However, when YRG2-ΔF was streaked onto SC-HIS-LEU-TRP solid media and incubated at 30° C., only small colonies were apparent after three days (substantially smaller in size than YRG2-WT colonies grown under the same growth conditions). Colonies were not apparent (or were detectable only as extremely small micro-colonies) when YRG2-ΔF was streaked onto solid SC-HIS, -LEU, -TRP media and incubated at 34° C. The ΔF508 mutation thus conferred a temperature-sensitive HIS+ phenotype to the yeast strain containing pADPN-ΔF and pBDPN-ΔF. To further enhance the temperature-sensitive HIS− colony phenotype of the YRG2-ΔF strain relative to the YRG2-WT strain, it is advantageous to incorporate 3-amino-1,2,4-triazole at a concentration of 1.5 mM into the SC-HIS-LEU-TRP media.
To use the YRG2-ΔF strain for screening purposes, a lawn of the YRG2-ΔF strain is spread onto selective media. This media contains yeast nitrogen base and all amino acids except for histidine, leucine, and tryptophan. The media also contains 3-amino 1,2,4-triazole at a concentration of 1.5 mM. […]

[2] = test system: YRG2-WT strain; experiment: Colony formation on SC-HIS-LEU-TRP media, YRG2-WT strain; type: cell-based, yeast; settings: 1.5 mM in SC-HIS-LEU-TRP media; 30° C.; three days
Protocol: as §1

[3] = biological target: T1, NBD1 ΔF508 domain of CFTR (dimerization) (Homo sapiens, UniProt P13569, DEL508-508/V470M); experiment: Yeast two-hybrid growth assay with YRG2-ΔF strain on selective media lacking histidine; type: cell-based; settings: 1.5M glycerol in growth media; 37° C.; media lacking leucine, tryptophan and histidine
T1 construct: expressed in transfected cells; host or cells: Saccharomyces cerevisiae strain YRG2 (Stratagene), transformed with pBDPN-ΔF and pADPN-ΔF = YRG2-ΔF
Protocol: FIGS. 2A-2C show growth of two-hybrid yeast strains containing wildtype and mutant CFTR NBD1. The yeast strain YRG2 was transformed with pADGAL4 and pBDGAL4 constructs containing wildtype and mutant CFTR NBD1 as indicated. Each strain was grown in synthetic complete media lacking leucine and tryptophan, and equal aliquots of cells in 10-fold dilutions were spotted to synthetic complete media lacking leucine, tryptophan and histidine. Dilutions for each strain proceed from right to left, with the spots from most dilute cultures corresponding to the tapered end of the triangle. Plates were incubated at either 21° C. (FIG. 2A) or 37° C. (FIG. 2B) (for 3 days and 5 days respectively). Glycerol was added to the media to a final concentration of 1.5 M as indicated (1.5 M Glyc) (FIG. 2C).
The present invention concerns methods for screening chemical compounds for drug candidates with activity to correct the dimerization defect associated with mutant CFTR NBD1 containing the ΔF508 mutation. […] If the sample tested is a pure compound, the compound can then be analyzed further in secondary assays to determine its activity to restore CFTRΔF508 cAMP-stimulated chloride channel activity in mammalian cells expressing CFTRΔF508 (Sheppard et al., 1994). […]

T1 sequence (P13569 with tags, fused parts or gaps V470M/DEL508-508): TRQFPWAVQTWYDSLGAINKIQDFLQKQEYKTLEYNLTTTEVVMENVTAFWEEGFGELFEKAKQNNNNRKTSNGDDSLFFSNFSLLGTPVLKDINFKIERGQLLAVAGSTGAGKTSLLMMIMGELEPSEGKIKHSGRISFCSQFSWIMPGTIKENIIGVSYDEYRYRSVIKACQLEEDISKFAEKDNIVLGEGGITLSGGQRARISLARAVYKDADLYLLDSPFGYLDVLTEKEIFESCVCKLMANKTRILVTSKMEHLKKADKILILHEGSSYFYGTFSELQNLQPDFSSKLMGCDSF
T1 sequence (P13569 with tags, fused parts or gaps V470M/DEL508-508): as above

rescue of temperature-sensitive dimerization of mutant NBD1 containing ΔF508 [3]	SMILES	colony formation of YRG2-ΔF strain [1]	colony formation of YRG2-WT strain [2]
–	Nc1nc[nH]n1 [3-amino-1,2,4-triazole]	prevents colony formation	does not inhibit colony formation
rescued	OCC(O)CO [glycerol]	–	–
